This is an account of results in patent US20150307520A1, “NOVEL HETEROARYL AND HETEROCYCLE COMPOUNDS, COMPOSITIONS AND METHODS THEREOF” (HUTCHISON MEDIPHARMA LIMITED, priority 2012, published 2015).

In general, IC50 refers to the concentration at which inhibition is half-maximal.

Common to all, as to assay type: biochemical
For one experiment, the target named is p110β/p85α (Homo sapiens, UniProt P42338). The experiment can be described thus: Transcreener KINASE Assay, kinase inhibition of p110β/p85α. Particulars: for PI3Kβ IH % @ 1 uM: 1 uM test compound; for IC50: read-out: PI3Kβ IC50. The gist of the method: (§1)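 Recombinant human PI3K heterodimers (p110/p85α) incubated with compound (2% DMSO final) in HEPES/NaCl/EGTA/CHAPS/MgCl2/DTT buffer with 30 uM PIP2 and 10 uM ATP (as added) for 80 min at room temperature.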

For a further experiment, the target named is p110δ/p85α (Homo sapiens, UniProt O00329). Description: Transcreener KINASE Assay, kinase inhibition of p110δ/p85α. Particulars: for IC50: read-out: PI3Kδ IC50; for PI3Kδ IH % @ 1 uM: 1 uM test compound. The gist of the method:
as §1

For another experiment, the target named is p110γ (Homo sapiens, UniProt P48736). Description: Transcreener KINASE Assay, kinase inhibition of p110γ. Particulars: for IC50: read-out: PI3Kγ IC50; for PI3Kγ IH % @ 1 uM: 1 uM test compound. Put shortly: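 FP read-out: far-red competitive immunoassay sensing ADP produced by recombinant p110/p85 or p110γ enzyme. Reaction 80 min RT, then detection mix 60 min RT. IC50 from curve fit.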
Chain of p110γ (P48736 whole entry): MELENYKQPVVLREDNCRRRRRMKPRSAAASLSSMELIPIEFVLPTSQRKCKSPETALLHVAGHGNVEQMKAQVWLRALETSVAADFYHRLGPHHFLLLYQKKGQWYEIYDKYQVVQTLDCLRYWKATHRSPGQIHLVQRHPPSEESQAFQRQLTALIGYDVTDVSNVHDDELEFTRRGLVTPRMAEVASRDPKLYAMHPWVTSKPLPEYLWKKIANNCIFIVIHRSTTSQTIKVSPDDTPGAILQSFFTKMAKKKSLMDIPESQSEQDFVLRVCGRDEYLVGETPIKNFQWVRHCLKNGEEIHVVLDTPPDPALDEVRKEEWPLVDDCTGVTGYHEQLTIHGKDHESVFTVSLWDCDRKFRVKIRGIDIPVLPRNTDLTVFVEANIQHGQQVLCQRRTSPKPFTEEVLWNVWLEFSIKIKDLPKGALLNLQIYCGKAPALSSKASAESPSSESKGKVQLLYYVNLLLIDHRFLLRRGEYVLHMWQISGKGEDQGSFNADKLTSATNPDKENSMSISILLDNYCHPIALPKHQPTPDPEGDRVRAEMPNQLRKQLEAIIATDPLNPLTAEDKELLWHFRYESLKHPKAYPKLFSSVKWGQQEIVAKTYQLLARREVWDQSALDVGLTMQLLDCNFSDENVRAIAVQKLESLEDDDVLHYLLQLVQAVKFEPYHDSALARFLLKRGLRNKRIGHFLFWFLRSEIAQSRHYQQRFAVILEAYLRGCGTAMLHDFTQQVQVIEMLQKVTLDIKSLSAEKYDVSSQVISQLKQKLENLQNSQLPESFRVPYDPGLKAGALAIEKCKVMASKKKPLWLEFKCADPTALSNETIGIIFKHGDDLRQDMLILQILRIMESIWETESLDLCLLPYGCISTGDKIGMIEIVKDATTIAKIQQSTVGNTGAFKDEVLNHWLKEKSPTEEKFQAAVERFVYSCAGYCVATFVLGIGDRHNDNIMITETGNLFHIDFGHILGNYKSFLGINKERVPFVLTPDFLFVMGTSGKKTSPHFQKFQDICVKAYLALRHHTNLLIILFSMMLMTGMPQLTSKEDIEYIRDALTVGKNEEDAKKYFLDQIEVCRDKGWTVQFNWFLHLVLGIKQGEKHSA

Chain of p110δ/p85α (O00329 whole entry): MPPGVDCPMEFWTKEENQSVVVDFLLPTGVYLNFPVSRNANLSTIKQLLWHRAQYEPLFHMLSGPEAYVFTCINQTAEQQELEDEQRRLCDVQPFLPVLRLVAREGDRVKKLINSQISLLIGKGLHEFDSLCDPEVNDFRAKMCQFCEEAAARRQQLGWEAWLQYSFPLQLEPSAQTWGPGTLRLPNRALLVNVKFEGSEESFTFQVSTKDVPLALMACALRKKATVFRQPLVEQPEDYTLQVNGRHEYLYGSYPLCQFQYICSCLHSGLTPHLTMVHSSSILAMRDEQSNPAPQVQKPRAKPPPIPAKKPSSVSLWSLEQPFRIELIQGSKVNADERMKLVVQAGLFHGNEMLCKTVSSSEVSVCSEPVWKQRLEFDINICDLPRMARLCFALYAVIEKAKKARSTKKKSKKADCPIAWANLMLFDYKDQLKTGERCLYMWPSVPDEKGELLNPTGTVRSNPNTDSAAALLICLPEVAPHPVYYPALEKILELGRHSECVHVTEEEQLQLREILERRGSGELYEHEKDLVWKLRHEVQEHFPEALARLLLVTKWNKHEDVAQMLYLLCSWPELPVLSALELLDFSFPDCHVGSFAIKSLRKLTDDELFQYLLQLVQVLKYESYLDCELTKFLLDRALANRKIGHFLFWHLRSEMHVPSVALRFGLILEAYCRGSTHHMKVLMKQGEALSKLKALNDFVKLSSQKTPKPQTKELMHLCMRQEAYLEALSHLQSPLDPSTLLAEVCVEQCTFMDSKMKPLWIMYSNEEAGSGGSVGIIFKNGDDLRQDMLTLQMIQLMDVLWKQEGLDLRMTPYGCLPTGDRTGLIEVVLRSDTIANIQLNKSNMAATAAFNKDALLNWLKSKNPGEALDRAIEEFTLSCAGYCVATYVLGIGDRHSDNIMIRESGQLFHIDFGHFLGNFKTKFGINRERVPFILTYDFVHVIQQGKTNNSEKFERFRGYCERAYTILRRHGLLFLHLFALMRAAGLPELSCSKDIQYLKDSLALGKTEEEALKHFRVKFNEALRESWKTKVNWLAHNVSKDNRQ
Chain of p110δ/p85α (P27986 whole entry partner): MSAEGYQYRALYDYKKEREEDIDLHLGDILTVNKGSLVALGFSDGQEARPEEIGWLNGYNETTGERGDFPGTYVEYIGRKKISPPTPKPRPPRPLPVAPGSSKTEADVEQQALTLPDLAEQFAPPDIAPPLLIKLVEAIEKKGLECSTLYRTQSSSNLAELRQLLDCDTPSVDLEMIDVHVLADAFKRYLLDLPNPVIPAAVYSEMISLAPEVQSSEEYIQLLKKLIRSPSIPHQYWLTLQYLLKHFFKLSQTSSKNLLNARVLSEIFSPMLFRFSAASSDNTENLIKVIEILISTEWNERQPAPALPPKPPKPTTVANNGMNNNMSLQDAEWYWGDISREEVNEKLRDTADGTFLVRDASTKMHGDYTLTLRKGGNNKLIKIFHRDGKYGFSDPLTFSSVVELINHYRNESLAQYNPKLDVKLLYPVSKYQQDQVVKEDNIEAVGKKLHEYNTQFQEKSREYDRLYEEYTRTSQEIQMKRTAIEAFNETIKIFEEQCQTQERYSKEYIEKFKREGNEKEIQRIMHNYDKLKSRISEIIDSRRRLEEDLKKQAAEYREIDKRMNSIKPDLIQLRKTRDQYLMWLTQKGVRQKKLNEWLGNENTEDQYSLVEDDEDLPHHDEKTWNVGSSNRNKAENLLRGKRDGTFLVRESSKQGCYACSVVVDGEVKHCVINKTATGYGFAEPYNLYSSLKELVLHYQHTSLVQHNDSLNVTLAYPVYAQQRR
Chain of p110β/p85α (P42338 whole entry): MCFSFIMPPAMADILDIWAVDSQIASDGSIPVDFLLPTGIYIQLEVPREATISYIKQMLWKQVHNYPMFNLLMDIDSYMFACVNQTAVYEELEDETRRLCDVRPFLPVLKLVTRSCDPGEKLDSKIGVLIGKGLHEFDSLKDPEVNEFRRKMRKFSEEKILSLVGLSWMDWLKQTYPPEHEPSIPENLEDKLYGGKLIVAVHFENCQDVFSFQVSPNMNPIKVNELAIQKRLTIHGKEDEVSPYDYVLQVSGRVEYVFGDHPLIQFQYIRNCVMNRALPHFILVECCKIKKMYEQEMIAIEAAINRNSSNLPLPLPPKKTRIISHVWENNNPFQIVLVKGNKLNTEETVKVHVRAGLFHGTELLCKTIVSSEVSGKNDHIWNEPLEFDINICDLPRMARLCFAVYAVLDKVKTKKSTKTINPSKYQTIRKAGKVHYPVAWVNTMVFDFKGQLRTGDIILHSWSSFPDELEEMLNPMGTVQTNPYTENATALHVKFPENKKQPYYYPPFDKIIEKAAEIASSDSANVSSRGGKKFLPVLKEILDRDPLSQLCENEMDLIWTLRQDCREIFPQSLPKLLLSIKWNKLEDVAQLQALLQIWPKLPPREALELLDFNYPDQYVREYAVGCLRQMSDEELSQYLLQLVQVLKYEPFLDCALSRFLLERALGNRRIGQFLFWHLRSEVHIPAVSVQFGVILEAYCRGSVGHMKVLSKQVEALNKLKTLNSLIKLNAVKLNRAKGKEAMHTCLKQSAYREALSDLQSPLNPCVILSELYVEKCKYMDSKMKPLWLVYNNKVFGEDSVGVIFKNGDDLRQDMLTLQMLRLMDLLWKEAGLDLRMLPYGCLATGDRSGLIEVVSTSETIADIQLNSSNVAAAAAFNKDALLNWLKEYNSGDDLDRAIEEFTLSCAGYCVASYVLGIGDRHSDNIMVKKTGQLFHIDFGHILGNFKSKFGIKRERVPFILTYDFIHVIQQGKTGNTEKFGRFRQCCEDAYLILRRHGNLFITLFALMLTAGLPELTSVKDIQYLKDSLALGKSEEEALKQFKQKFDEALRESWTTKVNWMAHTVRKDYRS
Chain of p110β/p85α (P27986 2-724 partner): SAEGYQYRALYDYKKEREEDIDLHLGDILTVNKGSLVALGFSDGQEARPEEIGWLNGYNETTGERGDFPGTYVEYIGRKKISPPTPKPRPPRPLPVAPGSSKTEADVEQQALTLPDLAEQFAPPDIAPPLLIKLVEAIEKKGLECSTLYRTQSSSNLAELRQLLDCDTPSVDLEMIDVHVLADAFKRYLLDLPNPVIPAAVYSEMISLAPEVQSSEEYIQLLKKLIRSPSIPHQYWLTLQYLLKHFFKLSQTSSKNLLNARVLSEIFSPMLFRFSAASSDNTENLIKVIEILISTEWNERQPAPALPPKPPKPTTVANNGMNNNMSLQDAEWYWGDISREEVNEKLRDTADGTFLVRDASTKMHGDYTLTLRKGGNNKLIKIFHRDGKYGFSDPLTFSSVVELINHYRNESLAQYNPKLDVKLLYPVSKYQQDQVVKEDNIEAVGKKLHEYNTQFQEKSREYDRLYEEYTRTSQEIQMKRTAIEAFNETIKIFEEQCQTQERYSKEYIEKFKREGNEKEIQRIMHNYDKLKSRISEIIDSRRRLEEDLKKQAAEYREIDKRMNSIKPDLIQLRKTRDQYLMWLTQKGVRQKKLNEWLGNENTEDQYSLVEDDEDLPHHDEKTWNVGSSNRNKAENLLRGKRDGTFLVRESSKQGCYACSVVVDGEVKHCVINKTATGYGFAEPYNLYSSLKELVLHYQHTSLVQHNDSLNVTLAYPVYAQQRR

In the case of `O=c1c2c(Cl)ccn2nc([C@@H]2CCCN2c2ncnc3[nH]cnc23)n1C1CCC1` [Compound 374], the “PI3Kβ IH % @ 1 uM” value on p110β/p85α came out at 58.7%. Further, the IC50 was determined as 517 nM at p110β/p85α, 4 nM at p110δ/p85α and 155 nM on p110γ.

As for `N#Cc1c[nH]c2ncnc(N3CC[C@H]3c3nn4ccc(Cl)c4c(=O)n3C3CCC3)c12` [Compound 375], on p110β/p85α, the “PI3Kβ IH % @ 1 uM” value is reported as 32.9%. At p110δ/p85α, the “PI3Kδ IH % @ 1 uM” value stood at 92.6% and the concentration for half-maximal inhibition (IC50) was 43 nM. At p110γ, the “PI3Kγ IH % @ 1 uM” value is listed as 65.7%.

Regarding `N#Cc1cnc(N)nc1N1CCC[C@H]1c1nn2ccc(Cl)c2c(=O)n1C1CCC1` [Compound 376], the “PI3Kβ IH % @ 1 uM” value at p110β/p85α is 54.8%. Besides, on p110δ/p85α, the “PI3Kδ IH % @ 1 uM” value came to 99.1% and the IC50 is 6 nM. On p110γ, the “PI3Kγ IH % @ 1 uM” value is 93.2% and the 50% inhibitory concentration (IC50) was determined as 26 nM.

Consider `Cc1nc(N)nc(N2CC[C@H]2c2nn3ccc(Cl)c3c(=O)n2-c2ccccc2)c1Cl` [Compound 377, (S)-2-(1-(2-amino-5-chloro-6-methylpyrimidin-4-yl)azetidin-2-yl)-5-chloro-3-phenylpyrrolo[2,1-f][1,2,4]triazin-4(3H)-one], for which the “PI3Kβ IH % @ 1 uM” value on p110β/p85α is recorded as 39.8%. For the same compound, on p110δ/p85α, the “PI3Kδ IH % @ 1 uM” value stood at 98.0% and the IC50 stood at 34 nM. Besides, at p110γ, the “PI3Kγ IH % @ 1 uM” value was 96.3% and the IC50 worked out at 45 nM.

For `COc1nc(N)nc(N2CC[C@H]2c2nn3ccc(Cl)c3c(=O)n2-c2ccccc2)c1C#N` [Compound 378, (S)-2-amino-4-(2-(5-chloro-4-oxo-3-phenyl-3,4-dihydropyrrolo[2,1-f][1,2,4]triazin-2-yl)azetidin-1-yl)-6-methoxypyrimidine-5-carbonitrile], the “PI3Kβ IH % @ 1 uM” value at p110β/p85α is recorded as 34.5%. On p110δ/p85α, the “PI3Kδ IH % @ 1 uM” value is on record as 87.2% and the half-inhibitory concentration (IC50) turned out to be 220 nM. In addition, on p110γ, the “PI3Kγ IH % @ 1 uM” value is more than 100% and the IC50 worked out at 179 nM.

In the case of `Nc1nc2c(c(N3CC[C@H]3c3nn4ccc(Cl)c4c(=O)n3-c3ccccn3)n1)C(=O)CCN2` [Compound 379], the “PI3Kβ IH % @ 1 uM” value at p110β/p85α was determined as 14.5%. The 50% inhibitory concentration (IC50) is 59 nM on p110δ/p85α and 35 nM on p110γ.

Consider `N#Cc1c[nH]c2ncnc(N3CC(=O)C[C@H]3c3nn4ccc(Cl)c4c(=O)n3-c3ccccc3)c12` [Compound 380, (S)-4-(2-(5-chloro-4-oxo-3-phenyl-3,4-dihydropyrrolo[2,1-f][1,2,4]triazin-2-yl)-4-oxopyrrolidin-1-yl)-7H-pyrrolo[2,3-d]pyrimidine-5-carbonitrile], for which, on p110β/p85α, the “PI3Kβ IH % @ 1 uM” value came to 87.8% and the IC50 was 65 nM. At p110δ/p85α, the “PI3Kδ IH % @ 1 uM” value stood at 98.0% and the half-maximal inhibitory concentration (IC50) stood at 1 nM. For the same compound, at p110γ, the “PI3Kγ IH % @ 1 uM” value is more than 100% and the IC50 was 10 nM.

With `O=C1C[C@@H](c2nn3ccc(Cl)c3c(=O)n2-c2ccccc2)N(c2ncnc3[nH]cnc23)C1` [Compound 381], the IC50 at p110β/p85α came out at 199 nM; at p110δ/p85α, 3 nM; on p110γ, 29 nM.

Regarding `C[C@@H](Nc1nc(N)ncc1C#N)c1cc2ncc(Cl)n2c(=O)n1-c1ccccc1` [Compound 384, (R)-2-amino-4-((1-(3-chloro-5-oxo-6-phenyl-5,6-dihydroimidazo[1,2-c]pyrimidin-7-yl)ethyl)amino)pyrimidine-5-carbonitrile], the “PI3Kβ IH % @ 1 uM” value on p110β/p85α is on record as 24.7%. Moreover, at p110δ/p85α, the “PI3Kδ IH % @ 1 uM” value is 91.0% and the half-inhibitory concentration (IC50) was 240 nM. Further, at p110γ, the “PI3Kγ IH % @ 1 uM” value was 53.6%.

With `C[S@+]([O-])c1c[nH]c2ncnc(N3CCC[C@H]3c3nn4ccc(Cl)c4c(=O)n3-c3ccccn3)c12` [Compound 388, 5-chloro-2-((S)-1-(5-((S)-methylsulfinyl)-7H-pyrrolo[2,3-d]pyrimidin-4-yl)pyrrolidin-2-yl)-3-(pyridin-2-yl)pyrrolo[2,1-f][1,2,4]triazin-4(3H)-one], the “PI3Kβ IH % @ 1 uM” value at p110β/p85α is reported as 69.3%. For the same compound, at p110δ/p85α, the “PI3Kδ IH % @ 1 uM” value came to 96.2% and the concentration for half-maximal inhibition (IC50) turned out to be 2 nM. For the same compound, on p110γ, the “PI3Kγ IH % @ 1 uM” value is recorded as 80.7% and the IC50 was determined as 173 nM.

For the compound `C[S@@+]([O-])c1c[nH]c2ncnc(N3CC[C@H]3c3nn4ccc(Cl)c4c(=O)n3-c3ccccn3)c12` [Compound 391, 5-chloro-2-((S)-1-(5-((R)-methylsulfinyl)-7H-pyrrolo[2,3-d]pyrimidin-4-yl)azetidin-2-yl)-3-(pyridin-2-yl)pyrrolo[2,1-f][1,2,4]triazin-4(3H)-one], the “PI3Kβ IH % @ 1 uM” value at p110β/p85α came to 0.1%. Besides, at p110δ/p85α, the “PI3Kδ IH % @ 1 uM” value is reported as 91.4% and the IC50 was 185 nM. Moreover, at p110γ, the “PI3Kγ IH % @ 1 uM” value came out at 90.5% and the half-inhibitory concentration (IC50) worked out at 129 nM.

In the case of `C[S@+]([O-])c1c[nH]c2ncnc(N3C[C@@H](F)C[C@H]3c3nn4ccc(Cl)c4c(=O)n3-c3cccc(F)c3)c12` [Compound 392, 5-chloro-2-((2S,4S)-4-fluoro-1-(5-((S)-methylsulfinyl)-7H-pyrrolo[2,3-d]pyrimidin-4-yl)pyrrolidin-2-yl)-3-(3-fluorophenyl)pyrrolo[2,1-f][1,2,4]triazin-4(3H)-one], the “PI3Kβ IH % @ 1 uM” value at p110β/p85α is 67.2%. For the same compound, on p110δ/p85α, the “PI3Kδ IH % @ 1 uM” value is 95.9% and the half-maximal inhibitory concentration (IC50) was 11 nM. Further, on p110γ, the “PI3Kγ IH % @ 1 uM” value came out at 89.1% and the IC50 came out at 62 nM.

On to `C[S@@+]([O-])c1c[nH]c2ncnc(N3C[C@@H](F)C[C@H]3c3nn4ccc(Cl)c4c(=O)n3-c3cccc(F)c3)c12` [Compound 393, 5-chloro-2-((2S,4S)-4-fluoro-1-(5-((R)-methylsulfinyl)-7H-pyrrolo[2,3-d]pyrimidin-4-yl)pyrrolidin-2-yl)-3-(3-fluorophenyl)pyrrolo[2,1-f][1,2,4]triazin-4(3H)-one], for which the “PI3Kβ IH % @ 1 uM” value on p110β/p85α is given as 35.2%. Moreover, at p110δ/p85α, the “PI3Kδ IH % @ 1 uM” value is 94.7% and the concentration for half-maximal inhibition (IC50) came out at 9 nM. At p110γ, the “PI3Kγ IH % @ 1 uM” value is 90.7% and the IC50 worked out at 9 nM.

Take `C[S@+]([O-])c1c[nH]c2ncnc(N3CCC[C@H]3c3nn4ccc(F)c4c(=O)n3-c3ccccc3)c12` [Compound 396, 5-fluoro-2-((S)-1-(5-((S)-methylsulfinyl)-7H-pyrrolo[2,3-d]pyrimidin-4-yl)pyrrolidin-2-yl)-3-phenylpyrrolo[2,1-f][1,2,4]triazin-4(3H)-one]: at p110β/p85α, the “PI3Kβ IH % @ 1 uM” value was 86.1% and the IC50 is 369 nM. For the same compound, at p110δ/p85α, the “PI3Kδ IH % @ 1 uM” value was more than 100% and the IC50 is 2 nM. Besides, at p110γ, the “PI3Kγ IH % @ 1 uM” value was 94.1% and the IC50 is 17 nM.

As for `C[S@@+]([O-])c1c[nH]c2ncnc(N3CCC[C@H]3c3nn4ccc(F)c4c(=O)n3-c3ccccc3)c12` [Compound 397, 5-fluoro-2-((S)-1-(5-((R)-methylsulfinyl)-7H-pyrrolo[2,3-d]pyrimidin-4-yl)pyrrolidin-2-yl)-3-phenylpyrrolo[2,1-f][1,2,4]triazin-4(3H)-one], at p110β/p85α, the “PI3Kβ IH % @ 1 uM” value is recorded as 52.0% and the IC50 worked out at 2350 nM. Moreover, on p110δ/p85α, the “PI3Kδ IH % @ 1 uM” value is recorded as more than 100% and the IC50 was 11 nM. Besides, at p110γ, the “PI3Kγ IH % @ 1 uM” value turned out to be 96.5% and the 50% inhibitory concentration (IC50) was found to be 13 nM.

In the case of `CC(=O)c1c(C)nc(N)nc1N1CC[C@H]1c1nn2ccc(Cl)c2c(=O)n1-c1ccccc1` [Compound 398], on p110β/p85α, the “PI3Kβ IH % @ 1 uM” value was 22.6%. Besides, at p110δ/p85α, the “PI3Kδ IH % @ 1 uM” value was 99.1% and the half-inhibitory concentration (IC50) is 25 nM. On p110γ, the “PI3Kγ IH % @ 1 uM” value is more than 100% and the IC50 was 18 nM.

`C[S+]([O-])c1cnc(N)nc1N1CC[C@H]1c1nn2ccc(Cl)c2c(=O)n1-c1ccccc1` (some centres unmarked) [Compound 399]: the “PI3Kβ IH % @ 1 uM” value at p110β/p85α is given as 3.5%. The “PI3Kδ IH % @ 1 uM” value on p110δ/p85α came out at 35.1%. For the same compound, the “PI3Kγ IH % @ 1 uM” value on p110γ was 70.3%.

For `O=C1C[C@@H](c2nn3ccc(F)c3c(=O)n2-c2ccccc2)N(c2ncnc3[nH]cnc23)C1` [Compound 400], the “PI3Kβ IH % @ 1 uM” value on p110β/p85α came out at 22.2%. Further, on p110δ/p85α, the “PI3Kδ IH % @ 1 uM” value is listed as more than 100% and the IC50 was found to be 12 nM. At p110γ, the “PI3Kγ IH % @ 1 uM” value turned out to be 70.4% and the IC50 came to 81 nM.

As for `N#Cc1cnc(N)nc1N1CC(=O)C[C@H]1c1nn2ccc(F)c2c(=O)n1-c1ccccc1` [Compound 401], the “PI3Kβ IH % @ 1 uM” value at p110β/p85α is listed as 46.7%. Further, at p110δ/p85α, the “PI3Kδ IH % @ 1 uM” value is on record as more than 100% and the IC50 amounted to 4 nM. Further, on p110γ, the “PI3Kγ IH % @ 1 uM” value was found to be 67.8% and the half-maximal inhibitory concentration (IC50) turned out to be 189 nM.

For the compound `CC(=O)c1c[nH]c2ncnc(N3CC(=O)C[C@H]3c3nn4ccc(Cl)c4c(=O)n3-c3ccccc3)c12` [Compound 402], the “PI3Kβ IH % @ 1 uM” value at p110β/p85α is on record as 21.7%. At p110δ/p85α, the “PI3Kδ IH % @ 1 uM” value is given as 93.4% and the 50% inhibitory concentration (IC50) came out at 67 nM. Besides, the “PI3Kγ IH % @ 1 uM” value at p110γ was 65.8%.

With `N#Cc1cnc(N)nc1N1CC(=O)C[C@H]1c1nn2ccc(Cl)c2c(=O)n1-c1ccccc1` [Compound 403], on p110β/p85α, the “PI3Kβ IH % @ 1 uM” value was 71.7% and the IC50 is 123 nM. In addition, on p110δ/p85α, the “PI3Kδ IH % @ 1 uM” value is recorded as 98.1% and the concentration for half-maximal inhibition (IC50) turned out to be 1 nM. At p110γ, the “PI3Kγ IH % @ 1 uM” value came out at 93.1% and the IC50 amounted to 7 nM.

For `N#Cc1cnc(N)nc1N1CC(=O)C[C@H]1c1nn2ccc(Cl)c2c(=O)n1-c1cccc(F)c1` [Compound 404], the “PI3Kβ IH % @ 1 uM” value at p110β/p85α is given as 31.1%. Also, at p110δ/p85α, the “PI3Kδ IH % @ 1 uM” value is 93.7% and the half-inhibitory concentration (IC50) was 3 nM. On p110γ, the “PI3Kγ IH % @ 1 uM” value amounted to 95.6% and the IC50 is 10 nM.
